Measured values: US20090098548A1, “MODULATORS OF ENZYMATIC NUCLEIC ACID ELEMENTS MOBILIZATION” (priority 2004, published 2009)
“Also recorded” adds a separate entry of the source.

Columns and labels:
HIV-1 = system: HIV-1
Method: HIV-1 transduction assay and inhibitory screen: 10,000 Ghost-R5 cells per well were plated in a 384 well plate in 49 μL media. 18 hours after plating, 1 μL of inhibitory compound, dissolved in DMSO, was added and gently mixed into solution. Following a 1 hour 37° C. incubation, HIV-1 virions were added in a final infectious volume of 100 μL. 44-48 hours after infection, 87 μL of media was removed from each well, and 13 μL/well of Bright-Glo luciferase detection reagent (Promega) was added. After a 2 minute incubation, the plates were read on a multiwell plate luminometer.
In parallel, cells infected with virus and compound were assayed for luciferase expression by the addition of […] of Bright-Glo reagent, as described above. In this way, effect of the inhibitory compounds on luciferase expression brought about by successful transduction was measured in the constant presence of the compounds.

HIV-1 integrase = HIV-1 integrase (Human immunodeficiency virus type 1 group M subtype B, UniProt P04585); assay: HIV-1 integrase assay (3' strand processing, PAGE); type: biochemical; set-up: made in house
Method: HIV-1 integrase assay: HIV-1 integrase activity was measured as described in Daniel, R. et al., AIDS Res Hum Retroviruses 20:135-44, 2004 (incorporated by reference in its entirety), except that 1.0 μL of either DMSO or inhibitor were added to the reactions. Briefly, HIV-1 integrase (1 μM, final concentration) was pre-incubated with various concentrations of inhibitor at 30° C. for 30 min. A 21-base pair ^32P labeled substrate (1×10^6 dpm), representing the U5 end of the viral genome, and MnCl2 (10 mM, final concentration) were subsequently added to the reaction. The reaction proceeded for 15 min. at 37° C. The reactions were subsequently quenched using EDTA (10 mM, final concentration), and the products separated on a 20% denaturing polyacrylamide gel.

[1] = system: HIV reverse transcription; assay: Quantitative real-time PCR of reverse transcripts in acutely infected cells; type: cell-based, HIV-1; details: 75 μM inhibitor, QPCR
Method: Quantitative real-time PCR of reverse transcripts, detection of transduction in newly infected cells, and effect of compounds on established provirus expression in stably infected cells: 10,000 Ghost-R5 cells were plated in 96 well dishes, treated with compound in a total volume of 75 μL, and incubated at 37° C. for 1 hour. Virus was then added in an additional volume of 25 μL. The final infectious volume was 100 μL, the final DMSO concentration was 1%, and the final compound concentration was as indicated. DNA was harvested using the DNeasy kit (Qiagen) 24 hours after infection in the constant presence of inhibitory compounds. Late DNA products of HIV reverse transcription were quantitated using the primers MH531 and MH532, and the probe LTR-P, as described in Burke, T. R. et al., J Med Chem 38:4171-8, 1995, herein incorporated by reference in its entirety.

Ghost-R5 cells = assay: Cytotoxicity assay (Cell Titer Glo); type: cell-based
Method: Cytotoxicity assay: Cytotoxicity assays were performed exactly as the infection assay described above, except media without virus was added following compound addition, and Cell Titer Glo (Promega) viability reagent was added in place of Bright Glo.

[2] = system: luciferase expression from proviral DNA; assay: Established provirus luciferase expression in stably infected Ghost-R5 cells; type: cell-based, HIV-1; details: 75 μM inhibitor, chronically infected cells
Method: To assess the potential effects of the inhibitory compounds on post-integration events such as transcription, translation, and luciferase enzyme stability and activity, Ghost-R5 cells stably infected several weeks earlier with the same virus preparation were incubated with inhibitory compound in 96 well dishes and luciferase activity was monitored 48 hours later by the addition of 100 μL of Bright-Glo reagent to each well, as described above.

Tn5 transposase = biological target: T1, Tn5 transposase (Escherichia coli, UniProt Q46731, E54K/L372P/M56A); type: binding
T1 construct: made in house
Method: For FP analysis, 60 μL reactions were analyzed using the FP protocol on a Wallac Victor V plate reader and a 7% native polyacrylamide gel was used in gel shift assays. For compound screening and subsequent analysis, 1 μL of either DMSO or test compound (final concentration 80 KIM) was added to the synapsis reactions. Compound screening was carried out using a Beckman Coulter Biomek FX in a 384 well format. Compounds identified as hits were rescreened using gel shift assays under synapsis conditions with a 120 μM compound concentration. IC50 values were obtained by fitting inhibitor titration data (0, 0.01, 0.05, 0.1, 0.5, 2.5, 10, 20, 35, 50, 100, 200, 400, 800 μM) to an exponential decay.

[3] = system: restriction enzyme BsmA I; assay: Inhibition of the restriction enzyme BsmA I (compound specificity); type: biochemical; details: 120 μM compound
Method: Inhibition of the restriction enzyme BsmA I was analyzed to determine compound specificity. Reactions were carried out in 2×NEB Buffer 3 with 160 nM dsDNA, 10 units of BsmA I (New England Biolabs), and 120 μM lead compound. Reactions were incubated at 55° C. for one hour followed by a 20 minute 80° C. heat inactivation step prior to gel electrophoresis. Samples were loaded onto a 9% native polyacrylamide gel and run at 300V for 2.5 hours. Gels were subsequently imaged and quantitated as described for the synapsis assays.

O=C(/C=C/c1ccccc1)C1=C(O)C(=O)N(c2ccccc2)C1c1cccc([N+](=O)[O-])c1 (stereo not shown) [compound 10]
inhibition of HIV-1 infection in cells (in words) (HIV-1): inhibit | inhibition of integrase in vitro (in words) (HIV-1 integrase): inhibit | effect on reverse transcription (viral DNA synthesis) [1]: either uninhibited, or only inhibited to a small extent; also recorded: no significant inhibitory effect | effect on gross cell viability (Ghost-R5 cells; 75 μM inhibitor): no significant inhibitory effect | LD50 relative to ED50 (Ghost-R5 cells; Ghost-R5 cells, cytotoxicity vs transduction): at least 2 fold | effect on luciferase expression from proviral DNA [2]: no significant inhibitory effect | inhibition of transposase assembly (in words) (Tn5 transposase): inhibit

O=C(/C=C/c1ccccc1)C1=C(O)C(=O)N(c2cccc(C(F)(F)F)c2)C1c1ccc([N+](=O)[O-])cc1 (stereo not shown) [compound 10-F]
inhibition of HIV-1 infection in cells (in words) (HIV-1): inhibit | inhibition of integrase in vitro (in words) (HIV-1 integrase): inhibit | inhibition of BsmA I activity [3]: partially inhibits | effect on reverse transcription (viral DNA synthesis) [1]: either uninhibited, or only inhibited to a small extent; also recorded: no significant inhibitory effect | effect on luciferase expression from proviral DNA [2]: no significant inhibitory effect | inhibition of transposase assembly (in words) (Tn5 transposase): inhibit
